Holding throughout (format): functional, cell-based
Experiment [1] has as its system RAW264.7. The experiment in a line: Antiinflammatory activity in mouse RAW264.7 cells assessed as inhibition of LPS-induced COX2 expression at 1 to 10 uM preincubated for 30 mins followed by LPS-stimulation and measured after 18 hrs by Western blot analysis.
Experiment [2] has as its system RAW264.7. Put plainly: Antiinflammatory activity in mouse RAW264.7 cells assessed as inhibition of LPS-induced COX2 mRNA expression at 10 uM preincubated for 30 mins followed by LPS-stimulation and measured after 18 hrs by QuantiFast SYBR Green dye based RT-PCR analysis.
Experiment [3] concerns RAW264.7. Put plainly: Antiinflammatory activity in mouse RAW264.7 cells assessed as inhibition of LPS-induced COX2 mRNA expression preincubated for 30 mins followed by LPS-stimulation and measured after 18 hrs by QuantiFast SYBR Green dye based RT-PCR analysis.
Experiment [4] concerns RAW264.7. The experiment in a line: Antiinflammatory activity in mouse RAW264.7 cells assessed as inhibition of LPS-induced COX2 mRNA expression at 50 uM preincubated for 30 mins followed by LPS-stimulation and measured after 18 hrs by QuantiFast SYBR Green dye based RT-PCR analysis.
The test system of experiment [5] is RAW264.7. Put plainly: Antiinflammatory activity in mouse RAW264.7 cells assessed as inhibition of LPS-induced PGE2 formation preincubated for 30 mins followed by LPS-stimulation and measured after 18 hrs by ELISA. Background: In an ELISA, binding on a coated surface is turned into a signal by an enzyme label.

These results are taken from ChEMBL document CHEMBL4392840, “Further sesquiterpenoids from the rhizomes of Homalomena occulta and their anti-inflammatory activity” (Bioorg Med Chem Lett, 2019).

Activity calls are given as the source filed them. The calls are words filed in the database; no cut-off is given here.

As to `CC1(C)[C@H]2[C@H]3[C@@H](CC[C@]3(C)O)[C@](C)(O)CC[C@H]21`, the inhibition result in the experiment with RAW264.7 [1] and in the experiment on RAW264.7 [2] was “Active” throughout. In the experiment on RAW264.7 [3], the inhibition result is “Dose-dependent effect”.

Turning to `C[C@@H]1CC[C@H]2[C@@H]1[C@H]1[C@@H](CC[C@@]2(C)O)C1(C)C`, the inhibition entry with RAW264.7 [1] and with RAW264.7 [2] was “Active” each time. Moreover, the inhibition entry with RAW264.7 [3] was “Dose-dependent effect”.

As to `Cc1cnc(NC(=O)C2=C(O)c3ccccc3S(=O)(=O)N2C)s1`, in the experiment with RAW264.7 [4], the inhibition entry is “Active”.

Consider `CC(C)[C@@H](O)[C@H]1CC[C@@]2(C)[C@@H]1[C@]1(C)CC[C@H]2O1`, for which the inhibition entry with RAW264.7 [1] and with RAW264.7 [2] was “Active” throughout. For the same compound, the inhibition entry with RAW264.7 [5] and with RAW264.7 [3] was “Dose-dependent effect” throughout.
